# Experimental data taken from ChEMBL document CHEMBL3779883, “Design and Synthesis of Nonpeptide Inhibitors of Hepatocyte Growth Factor Activation” (ACS Med Chem Lett, 2016).
# Target: Prothrombin (Homo sapiens, UniProt P00734)
# Test: Inhibition of human recombinant thrombin using H2N(EEdansyl)GKQLRVVNGG (KDabcyl)-NH2 as substrate by fluorometric analysis
# Conditions: not given
row,SMILES,Ki
1,N=C(N)c1cccc(N2CC(OCc3ccccc3)CN(CC3CCN(Cc4ccccc4)CC3)C2=O)c1 (centres undefined),29700 nM
2,COCC1CN(CC2CCN(Cc3ccccc3)CC2)C(=O)N(c2cccc(C(=N)N)c2)C1 (centres undefined),8100 nM
3,CS(=O)(=O)NC1CN(CC2CCN(Cc3ccccc3)CC2)C(=O)N(c2cccc(C(=N)N)c2)C1 (centres undefined),> 100000 nM
4,N=C(N)c1cccc(NC(=O)NC2CCN(Cc3ccccc3)CC2)c1,> 100000 nM
5,N=C(N)c1cccc(N2CC(COCc3ccccc3)CN(CC3CCN(Cc4ccccc4)CC3)C2=O)c1 (centres undefined),2130 nM
6,N=C(N)c1cccc(N2CC(O)CN(CC3CCN(Cc4ccccc4)CC3)C2=O)c1 (centres undefined),21900 nM
7,CC1CN(c2ccc(C(=N)N)cc2)C(=O)N(C2CCN(Cc3ccccc3)CC2)C1 (centres undefined),> 100000 nM
8,CC1CN(Cc2cccc(C(=N)N)c2)C(=O)N(C2CCN(Cc3ccccc3)CC2)C1 (centres undefined),> 100000 nM
9,CC1CN(c2cccc(C(=N)N)c2)C(=O)N(C2CCN(Cc3ccccc3)CC2)C1 (centres undefined),35900 nM

# Target: Hepatocyte growth factor activator/Serine protease hepsin/Suppressor of tumorigenicity 14 protein (Homo sapiens) (UniProt Q9Y5Y6+P05981+Q04756)
# Test: Inhibition of matripase/hepsin/hepatocyte growth factor activator-mediated HGF activation in human 18Co fibroblasts assessed as scattering of human DU145 cells after 24 hrs by crystal violet staining method
# Format: cell-based
# Conditions: not given
# Hepatocyte growth factor activator/Serine protease hepsin/Suppressor of tumorigenicity 14 protein (Homo sapiens), sequence (P05981 whole entry, looked up, one chain of several): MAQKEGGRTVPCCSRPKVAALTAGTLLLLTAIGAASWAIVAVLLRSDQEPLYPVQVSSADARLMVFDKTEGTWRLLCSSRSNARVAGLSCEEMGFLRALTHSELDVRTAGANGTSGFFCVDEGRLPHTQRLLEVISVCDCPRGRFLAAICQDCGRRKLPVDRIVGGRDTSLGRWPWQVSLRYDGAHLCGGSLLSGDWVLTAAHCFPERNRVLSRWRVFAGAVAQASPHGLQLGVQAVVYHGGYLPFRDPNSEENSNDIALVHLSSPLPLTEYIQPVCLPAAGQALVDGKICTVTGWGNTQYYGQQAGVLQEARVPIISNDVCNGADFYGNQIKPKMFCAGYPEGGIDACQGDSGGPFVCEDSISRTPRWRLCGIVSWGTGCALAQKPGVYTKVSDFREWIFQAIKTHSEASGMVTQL
row,SMILES,inhibition
1,COCC1CN(CC2CCN(Cc3ccccc3)CC2)C(=O)N(c2cccc(C(=N)N)c2)C1 (centres undefined),Dose-dependent effect
2,N=C(N)c1cccc(N2CC(O)CN(CC3CCN(Cc4ccccc4)CC3)C2=O)c1 (centres undefined),Dose-dependent effect

# Target: T1, Hepatocyte growth factor activator serine protease (Homo sapiens, UniProt Q04756)
# T1 sequence (Q04756 whole entry): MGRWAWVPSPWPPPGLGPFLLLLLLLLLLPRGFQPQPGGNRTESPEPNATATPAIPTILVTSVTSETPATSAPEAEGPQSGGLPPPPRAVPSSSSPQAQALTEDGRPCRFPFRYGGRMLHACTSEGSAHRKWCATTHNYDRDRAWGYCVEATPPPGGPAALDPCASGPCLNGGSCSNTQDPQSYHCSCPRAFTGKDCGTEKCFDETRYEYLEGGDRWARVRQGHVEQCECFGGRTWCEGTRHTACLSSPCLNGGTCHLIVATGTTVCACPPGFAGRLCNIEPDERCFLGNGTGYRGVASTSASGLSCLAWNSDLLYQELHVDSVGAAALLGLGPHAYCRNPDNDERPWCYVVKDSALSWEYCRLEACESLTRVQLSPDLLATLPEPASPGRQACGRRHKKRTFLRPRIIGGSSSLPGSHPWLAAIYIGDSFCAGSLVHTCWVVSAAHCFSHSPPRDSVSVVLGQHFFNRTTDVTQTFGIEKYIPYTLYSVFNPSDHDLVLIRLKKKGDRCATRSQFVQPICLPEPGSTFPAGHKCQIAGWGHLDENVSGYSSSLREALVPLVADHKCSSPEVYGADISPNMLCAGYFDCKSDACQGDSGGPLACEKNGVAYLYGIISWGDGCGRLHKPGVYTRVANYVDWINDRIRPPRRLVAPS
# Test: Inhibition of human recombinant hepatocyte growth factor activator using H2N(EEdansyl)GKQLRVVNGG (KDabcyl)-NH2 as substrate by fluorometric analysis
# Format: single protein
# Conditions: not given
row,SMILES,Ki
1,N=C(N)c1cccc(N2CC(OCc3ccccc3)CN(CC3CCN(Cc4ccccc4)CC3)C2=O)c1 (centres undefined),1920 nM
2,COCC1CN(CC2CCN(Cc3ccccc3)CC2)C(=O)N(c2cccc(C(=N)N)c2)C1 (centres undefined),160 nM
3,CS(=O)(=O)NC1CN(CC2CCN(Cc3ccccc3)CC2)C(=O)N(c2cccc(C(=N)N)c2)C1 (centres undefined),350 nM
4,N=C(N)c1cccc(NC(=O)NC2CCN(Cc3ccccc3)CC2)c1,54600 nM
5,N=C(N)c1cccc(N2CC(COCc3ccccc3)CN(CC3CCN(Cc4ccccc4)CC3)C2=O)c1 (centres undefined),430 nM
6,N=C(N)c1cccc(N2CC(O)CN(CC3CCN(Cc4ccccc4)CC3)C2=O)c1 (centres undefined),880 nM
7,CC1CN(c2ccc(C(=N)N)cc2)C(=O)N(C2CCN(Cc3ccccc3)CC2)C1 (centres undefined),46500 nM
8,CC1CN(Cc2cccc(C(=N)N)c2)C(=O)N(C2CCN(Cc3ccccc3)CC2)C1 (centres undefined),> 100000 nM
9,CC1CN(c2cccc(C(=N)N)c2)C(=O)N(C2CCN(Cc3ccccc3)CC2)C1 (centres undefined),9800 nM

# Target: Trypsin (Homo sapiens, UniProt P07477+P07478+P35030)
# Test: Inhibition of human recombinant trypsin using H2N(EEdansyl)GKQLRVVNGG (KDabcyl)-NH2 as substrate by fluorometric analysis
# Format: protein assay
# Conditions: not given
row,SMILES,Ki
1,N=C(N)c1cccc(N2CC(OCc3ccccc3)CN(CC3CCN(Cc4ccccc4)CC3)C2=O)c1 (centres undefined),550 nM
2,COCC1CN(CC2CCN(Cc3ccccc3)CC2)C(=O)N(c2cccc(C(=N)N)c2)C1 (centres undefined),210 nM
3,CS(=O)(=O)NC1CN(CC2CCN(Cc3ccccc3)CC2)C(=O)N(c2cccc(C(=N)N)c2)C1 (centres undefined),420 nM
4,N=C(N)c1cccc(NC(=O)NC2CCN(Cc3ccccc3)CC2)c1,5300 nM
5,N=C(N)c1cccc(N2CC(COCc3ccccc3)CN(CC3CCN(Cc4ccccc4)CC3)C2=O)c1 (centres undefined),100 nM
6,N=C(N)c1cccc(N2CC(O)CN(CC3CCN(Cc4ccccc4)CC3)C2=O)c1 (centres undefined),390 nM
7,CC1CN(c2ccc(C(=N)N)cc2)C(=O)N(C2CCN(Cc3ccccc3)CC2)C1 (centres undefined),35400 nM
8,CC1CN(Cc2cccc(C(=N)N)c2)C(=O)N(C2CCN(Cc3ccccc3)CC2)C1 (centres undefined),4800 nM
9,CC1CN(c2cccc(C(=N)N)c2)C(=O)N(C2CCN(Cc3ccccc3)CC2)C1 (centres undefined),780 nM

# Target: T2, Suppressor of tumorigenicity 14 protein (Homo sapiens, UniProt Q9Y5Y6)
# T2 sequence (Q9Y5Y6 whole entry): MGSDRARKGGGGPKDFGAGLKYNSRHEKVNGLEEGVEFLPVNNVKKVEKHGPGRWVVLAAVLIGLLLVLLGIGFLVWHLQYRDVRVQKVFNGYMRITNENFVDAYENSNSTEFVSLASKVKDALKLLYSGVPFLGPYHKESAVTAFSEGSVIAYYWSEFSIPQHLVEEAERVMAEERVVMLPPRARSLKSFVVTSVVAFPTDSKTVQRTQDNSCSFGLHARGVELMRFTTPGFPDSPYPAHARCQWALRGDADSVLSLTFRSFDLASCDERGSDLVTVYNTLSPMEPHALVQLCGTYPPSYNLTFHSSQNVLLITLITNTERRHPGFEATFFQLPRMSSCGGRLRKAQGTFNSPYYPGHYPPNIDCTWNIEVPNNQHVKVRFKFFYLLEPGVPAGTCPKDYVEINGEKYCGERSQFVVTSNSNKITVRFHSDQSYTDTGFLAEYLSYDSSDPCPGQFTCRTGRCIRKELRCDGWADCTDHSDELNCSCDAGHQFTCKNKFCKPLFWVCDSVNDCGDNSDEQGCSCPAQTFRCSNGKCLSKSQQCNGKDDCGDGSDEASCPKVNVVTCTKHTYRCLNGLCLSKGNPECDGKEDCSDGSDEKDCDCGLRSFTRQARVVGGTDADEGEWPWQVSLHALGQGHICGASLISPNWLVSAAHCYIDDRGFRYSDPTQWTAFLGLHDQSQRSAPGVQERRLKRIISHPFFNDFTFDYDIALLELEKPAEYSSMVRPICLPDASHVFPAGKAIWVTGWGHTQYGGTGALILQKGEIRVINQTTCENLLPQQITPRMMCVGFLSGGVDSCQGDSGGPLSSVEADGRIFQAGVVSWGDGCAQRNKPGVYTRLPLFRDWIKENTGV
# Test: Inhibition of human recombinant matripase catalytic domain using H2N(EEdansyl)GKQLRVVNGG (KDabcyl)-NH2 as substrate by fluorometric analysis
# Conditions: not given
row,SMILES,Ki
1,N=C(N)c1cccc(N2CC(OCc3ccccc3)CN(CC3CCN(Cc4ccccc4)CC3)C2=O)c1 (centres undefined),1540 nM
2,COCC1CN(CC2CCN(Cc3ccccc3)CC2)C(=O)N(c2cccc(C(=N)N)c2)C1 (centres undefined),850 nM
3,CS(=O)(=O)NC1CN(CC2CCN(Cc3ccccc3)CC2)C(=O)N(c2cccc(C(=N)N)c2)C1 (centres undefined),330 nM
4,N=C(N)c1cccc(NC(=O)NC2CCN(Cc3ccccc3)CC2)c1,40500 nM
5,N=C(N)c1cccc(N2CC(COCc3ccccc3)CN(CC3CCN(Cc4ccccc4)CC3)C2=O)c1 (centres undefined),850 nM
6,N=C(N)c1cccc(N2CC(O)CN(CC3CCN(Cc4ccccc4)CC3)C2=O)c1 (centres undefined),280 nM
7,CC1CN(c2ccc(C(=N)N)cc2)C(=O)N(C2CCN(Cc3ccccc3)CC2)C1 (centres undefined),48900 nM
8,CC1CN(Cc2cccc(C(=N)N)c2)C(=O)N(C2CCN(Cc3ccccc3)CC2)C1 (centres undefined),13500 nM
9,CC1CN(c2cccc(C(=N)N)c2)C(=O)N(C2CCN(Cc3ccccc3)CC2)C1 (centres undefined),830 nM

# System: not listed separately
# Test: Kinetic solubility of the compound at pH 7.4
# Format: physicochemical
# Conditions: buffer, read-out: Kinetic_solubility
row,SMILES,solubility kinetic
1,N=C(N)c1cccc(N2CC(OCc3ccccc3)CN(CC3CCN(Cc4ccccc4)CC3)C2=O)c1 (centres undefined),47 µM
2,COCC1CN(CC2CCN(Cc3ccccc3)CC2)C(=O)N(c2cccc(C(=N)N)c2)C1 (centres undefined),47 µM
3,N=C(N)c1cccc(N2CC(COCc3ccccc3)CN(CC3CCN(Cc4ccccc4)CC3)C2=O)c1 (centres undefined),47 µM
4,N=C(N)c1cccc(N2CC(O)CN(CC3CCN(Cc4ccccc4)CC3)C2=O)c1 (centres undefined),47 µM

# Target: Serine protease hepsin (Homo sapiens, UniProt P05981)
# Test: Inhibition of human recombinant hepsin using H2N(EEdansyl)GKQLRVVNGG (KDabcyl)-NH2 as substrate by fluorometric analysis
# Conditions: not given
# Serine protease hepsin, sequence (P05981 1-162 limits assumed): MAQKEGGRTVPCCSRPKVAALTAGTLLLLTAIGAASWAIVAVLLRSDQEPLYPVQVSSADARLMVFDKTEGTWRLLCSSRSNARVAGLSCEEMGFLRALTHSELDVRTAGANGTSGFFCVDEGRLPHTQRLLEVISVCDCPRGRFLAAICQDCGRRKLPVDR
# Serine protease hepsin, sequence (P05981 163-417 limits assumed): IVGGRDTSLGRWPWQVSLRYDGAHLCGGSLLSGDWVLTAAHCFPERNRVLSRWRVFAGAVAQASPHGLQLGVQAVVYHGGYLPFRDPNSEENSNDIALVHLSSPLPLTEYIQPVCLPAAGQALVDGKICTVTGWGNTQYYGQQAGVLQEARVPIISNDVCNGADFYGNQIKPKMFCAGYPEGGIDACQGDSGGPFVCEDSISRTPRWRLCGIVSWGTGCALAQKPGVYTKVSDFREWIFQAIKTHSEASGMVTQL
row,SMILES,Ki
1,N=C(N)c1cccc(N2CC(OCc3ccccc3)CN(CC3CCN(Cc4ccccc4)CC3)C2=O)c1 (centres undefined),760 nM
2,COCC1CN(CC2CCN(Cc3ccccc3)CC2)C(=O)N(c2cccc(C(=N)N)c2)C1 (centres undefined),920 nM
3,CS(=O)(=O)NC1CN(CC2CCN(Cc3ccccc3)CC2)C(=O)N(c2cccc(C(=N)N)c2)C1 (centres undefined),720 nM
4,N=C(N)c1cccc(NC(=O)NC2CCN(Cc3ccccc3)CC2)c1,53100 nM
5,N=C(N)c1cccc(N2CC(COCc3ccccc3)CN(CC3CCN(Cc4ccccc4)CC3)C2=O)c1 (centres undefined),560 nM
6,N=C(N)c1cccc(N2CC(O)CN(CC3CCN(Cc4ccccc4)CC3)C2=O)c1 (centres undefined),210 nM
7,CC1CN(c2ccc(C(=N)N)cc2)C(=O)N(C2CCN(Cc3ccccc3)CC2)C1 (centres undefined),61200 nM
8,CC1CN(Cc2cccc(C(=N)N)c2)C(=O)N(C2CCN(Cc3ccccc3)CC2)C1 (centres undefined),15100 nM
9,CC1CN(c2cccc(C(=N)N)c2)C(=O)N(C2CCN(Cc3ccccc3)CC2)C1 (centres undefined),3400 nM

# System: not listed separately
# Test: Lipophilicity, logD of the compound at pH 7.4 by shake-flask method
# Format: physicochemical
# Conditions: buffer
row,SMILES,logD
1,N=C(N)c1cccc(N2CC(OCc3ccccc3)CN(CC3CCN(Cc4ccccc4)CC3)C2=O)c1 (centres undefined),< 2
2,COCC1CN(CC2CCN(Cc3ccccc3)CC2)C(=O)N(c2cccc(C(=N)N)c2)C1 (centres undefined),< 2
3,N=C(N)c1cccc(N2CC(COCc3ccccc3)CN(CC3CCN(Cc4ccccc4)CC3)C2=O)c1 (centres undefined),< 2
4,N=C(N)c1cccc(N2CC(O)CN(CC3CCN(Cc4ccccc4)CC3)C2=O)c1 (centres undefined),< 2

# Target: Coagulation factor X (Homo sapiens, UniProt P00742)
# Test: Inhibition of human recombinant factor 10a using H2N(EEdansyl)GKQLRVVNGG (KDabcyl)-NH2 as substrate by fluorometric analysis
# Conditions: not given
# Coagulation factor X, sequence (P00742 41-179 limits assumed): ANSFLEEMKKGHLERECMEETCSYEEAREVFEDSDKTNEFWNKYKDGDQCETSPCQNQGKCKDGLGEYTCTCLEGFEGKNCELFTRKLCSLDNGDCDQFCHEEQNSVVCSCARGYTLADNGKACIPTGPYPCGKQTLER
# Coagulation factor X, sequence (P00742 235-488 limits assumed): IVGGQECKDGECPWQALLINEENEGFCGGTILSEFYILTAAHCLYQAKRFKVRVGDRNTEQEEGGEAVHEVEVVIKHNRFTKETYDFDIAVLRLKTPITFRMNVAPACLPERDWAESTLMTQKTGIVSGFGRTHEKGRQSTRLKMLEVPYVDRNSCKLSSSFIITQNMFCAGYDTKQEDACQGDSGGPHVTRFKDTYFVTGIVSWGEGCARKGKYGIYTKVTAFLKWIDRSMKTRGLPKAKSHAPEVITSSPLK
row,SMILES,Ki
1,N=C(N)c1cccc(N2CC(OCc3ccccc3)CN(CC3CCN(Cc4ccccc4)CC3)C2=O)c1 (centres undefined),920 nM
2,COCC1CN(CC2CCN(Cc3ccccc3)CC2)C(=O)N(c2cccc(C(=N)N)c2)C1 (centres undefined),200 nM
3,CS(=O)(=O)NC1CN(CC2CCN(Cc3ccccc3)CC2)C(=O)N(c2cccc(C(=N)N)c2)C1 (centres undefined),510 nM
4,N=C(N)c1cccc(NC(=O)NC2CCN(Cc3ccccc3)CC2)c1,5400 nM
5,N=C(N)c1cccc(N2CC(COCc3ccccc3)CN(CC3CCN(Cc4ccccc4)CC3)C2=O)c1 (centres undefined),180 nM
6,N=C(N)c1cccc(N2CC(O)CN(CC3CCN(Cc4ccccc4)CC3)C2=O)c1 (centres undefined),850 nM
7,CC1CN(c2ccc(C(=N)N)cc2)C(=O)N(C2CCN(Cc3ccccc3)CC2)C1 (centres undefined),25500 nM
8,CC1CN(Cc2cccc(C(=N)N)c2)C(=O)N(C2CCN(Cc3ccccc3)CC2)C1 (centres undefined),49400 nM
9,CC1CN(c2cccc(C(=N)N)c2)C(=O)N(C2CCN(Cc3ccccc3)CC2)C1 (centres undefined),240 nM
